Data: patent US20150018384A1, “TREATMENT FOR HIGH CHOLESTEROL” (FibroGen, Inc., priority 2012, published 2015)
“Also recorded” adds a separate entry of the source. Marks after values point to notes of the source that are not given here.

Tests used:
ApoE deficient mice = test: Cholesterol reduction and erythrogenesis in ApoE deficient mice, 4 weeks; format: in vivo, mouse; settings: orally 2, 20, 60 or 100 mg/kg three times a week for 4 weeks, n=8/group
Procedure: Ten-week-old male apoE knockout mice (Jackson Laboratories, Bar Harbor, Me.) were fed a normal chow diet (0.02% cholesterol, 13.5% fat by weight; LabDiet). […] After 2 weeks of acclimatization, whole blood was collected for baseline measurement before administration of test reagents. […] The animals were sacrificed at end of study.
Total cholesterol and hemoglobin were measured weekly.

[1] = tested on: subjects with chronic kidney disease (CKD); test: Phase 2b study in CKD subjects with anemia, Compound A vs placebo; format: in vivo, human
Procedure: The Hb target was 11 g/dL. The primary efficacy endpoint was the maximum change of Hb from baseline by Week 9.
Subjects were stratified by baseline (BL) total cholesterol (either >200 mg/dL or s 200 mg/dL) and analyzed for mean total cholesterol and LDL-C over the course of treatment.

[2] = tested on: subjects with end stage renal disease (ESRD); test: ESRD subjects switched from epoetin alfa to Compound A or continued on epoetin alfa; format: in vivo, human; settings: six weeks
Procedure: Mean total cholesterol change for the Compound A-treated subjects (all cohorts) was a decrease of 15 mg/dL compared to an increase of 18 mg/dL for the epoetin alfa treated subjects.

healthy subjects = test: Circulating total cholesterol and LDL-C in healthy subjects dosed twice per week; format: in vivo, human; settings: 1.88 mg/Kg orally twice per week, average (SD), n=6
Procedure: Subjects were fasted overnight prior on subsequent dosing days. Overnight fasting was not required on non-dosing days. The samples had been stored frozen at −70° C. for up to 6 years, and had undergone up to two thaw/freeze cycles prior to testing. Results are presented separately for samples collected during fasting: Day 1 (0, 1, 2 hrs post-dose), Day 2 (24 hrs), Day 3 (72 hrs), Day 7 (168 hrs), Day 10 (240 hrs) and Day 17 (408 hours).
Samples were analyzed using validated assays on a Roche Modular system. Total cholesterol was measured using the CHOD-PAP reagent from Roche, Cat. No. 11875540216. HDL cholesterol was measured using reagents from Polymedco, Cat. No. 9400 (data not shown). LDL cholesterol was measured using the LDL-C plus 2nd generation reagents from Roche, Cat. No. 04711220190. Triglycerides were measured using GPO-PAP reagent from Roche, Cat. No. 11730711216 (data not shown).

PHD3 = PHD3 (Homo sapiens, UniProt Q9H6Z9); test: HIF prolyl hydroxylase enzyme assay, PHD3; format: biochemical
PHD3, sequence (Q9H6Z9 whole entry): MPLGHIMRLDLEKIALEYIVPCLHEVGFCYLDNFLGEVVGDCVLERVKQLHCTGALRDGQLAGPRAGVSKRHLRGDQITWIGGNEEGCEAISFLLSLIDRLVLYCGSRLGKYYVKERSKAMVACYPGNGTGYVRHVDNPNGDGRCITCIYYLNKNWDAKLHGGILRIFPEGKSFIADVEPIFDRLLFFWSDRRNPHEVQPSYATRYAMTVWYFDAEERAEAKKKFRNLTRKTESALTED
Excerpt: (§1) Suitable assay methods are well known in the art.

[3] = tested on: subjects with end-stage renal disease (ESRD) receiving maintenance hemodialysis; test: Study 2: phase 2 study of compound A vs EPO in ESRD subjects on maintenance hemodialysis; format: in vivo, human
Procedure: Total cholesterol and lipid panels were measured by standard procedures.
Total cholesterol was measured from all subjects in Study 1 or Study 2 as part of the chemistry panel at prespecified time points.
Frozen serum samples, collected from subjects in Study 1 or Study 2, were selected for the lipid panel analysis based on the following criteria: 1) with matched baseline (D1W1) and; 2) at least one other time point. The complete lipid panel includes: total cholesterol (TC), HDL, LDL-measured, Triglycerides and VLDL (Calculated). Ratio of HDL/LDL or LDL/HDL were analyzed.
A total of n=20 subjects were selected and assayed for the complete lipid panel as described above. Subjects on this study protocol were not required to fast nor have any diet restrictions.

Sprague-Dawley rats = test: Single oral dose lipid panel in rats; format: in vivo, rat; settings: fasted rats, single oral dose 60 mg/kg, after 24 hours
Procedure: Blood samples were collected at baseline (pre-dose) and approximately 24 hours following dosing to determine levels of cholesterol, HDL, LDL and the LDL/HDL ratio.

PHD1 = PHD1 (Homo sapiens, UniProt Q96KS0); test: HIF prolyl hydroxylase enzyme assay, PHD1; format: biochemical
PHD1, sequence (Q96KS0 whole entry): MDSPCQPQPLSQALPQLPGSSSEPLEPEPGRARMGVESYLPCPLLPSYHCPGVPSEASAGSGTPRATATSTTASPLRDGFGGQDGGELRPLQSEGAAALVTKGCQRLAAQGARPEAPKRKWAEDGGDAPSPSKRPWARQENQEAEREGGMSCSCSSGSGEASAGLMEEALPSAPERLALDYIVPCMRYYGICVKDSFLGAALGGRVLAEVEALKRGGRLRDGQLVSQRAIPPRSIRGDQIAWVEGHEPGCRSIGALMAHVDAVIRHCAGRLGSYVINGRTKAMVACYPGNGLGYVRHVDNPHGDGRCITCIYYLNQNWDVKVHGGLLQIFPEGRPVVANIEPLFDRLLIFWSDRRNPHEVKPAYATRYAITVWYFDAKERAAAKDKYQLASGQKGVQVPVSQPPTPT
Excerpt: as §1

[4] = orally three times a week for 8 weeks
[5] = BL total cholesterol >200 mg/dL, visit D1W1 (baseline)
[6] = BL total cholesterol >200 mg/dL, visit W9
[7] = BL total cholesterol ≦200 mg/dL, visit D1W1 (baseline)
[8] = BL total cholesterol ≦200 mg/dL, visit W9
[9] = n=20, 9 weeks vs baseline, FIG. 8A

SMILES: Cc1nc(C(=O)NCC(=O)O)c(O)c2ccc(Oc3ccccc3)cc12 [Compound A, [(4-Hydroxy-1-methyl-7-phenoxy-isoquinoline-3-carbonyl)-amino]-acetic acid]
- doses with statistically significant decreases in total cholesterol (% change) (ApoE deficient mice): 100 mg/kg
- hemoglobin compared to vehicle-treated (ApoE deficient mice): statistically significant increases in hemoglobin compared to vehicle-treated at the 60 mg/kg and 100 mg/kg doses; also recorded: significant increase in hemoglobin for the 60 mg/kg and 100 mg/kg doses
- total cholesterol (% change from baseline) compared to vehicle-treated (ApoE deficient mice): lower total cholesterol levels; also recorded: significant percent change in total cholesterol from baseline for the 100 mg/kg dose
- Mean BL LDL-C ([1]; baseline (pre-treatment)): 102.60 mg/dL
- Mean BL Total Cholesterol ([1]; baseline (pre-treatment)): 166.84 mg/dL
- Cholesterol total % change [1, 4]: −18.5%
- Cholesterol total change [1, 4]: -33.9 mg/dL
- HDL-C [1, 4]: decreased
- LDL Cholesterol % change [1, 4]: −23.2%
- LDL cholesterol change [1, 4]: -27.9 mg/dL
- percentage of subjects who achieved Hb response (Hb increase of >1 g/dL from baseline Hb) [1, 4]: 86.4%
- mean total cholesterol over the course of treatment ([1]; subjects stratified by BL total cholesterol ≦200 (n=48) or >200 mg/dL (n=13), FIG. 14): reduction
- mean LDL-C over the course of treatment ([1]; subjects stratified by BL total cholesterol ≦200 (n=48) or >200 mg/dL (n=13), FIG. 15): reduction
- Total Cholesterol change ([2]; Mean (±SD), Compound A orally three times a week (n=74) or continued epoetin alfa (n=22)): −15 (38)** mg/dL
- Mean total cholesterol change, decrease ([2]; all cohorts): 15 mg/dL
- LDL Cholesterol (healthy subjects; 0 hours): 95 (36) mg/dL
- Total Cholesterol (healthy subjects; 0 hours): 165 (33) mg/dL
- LDL Cholesterol (healthy subjects; 1 hours): 95 (36) mg/dL
- Total Cholesterol (healthy subjects; 1 hours): 164 (30) mg/dL
- LDL Cholesterol (healthy subjects; 2 hours): 97 (35) mg/dL
- Total Cholesterol (healthy subjects; 2 hours): 167 (32) mg/dL
- LDL Cholesterol (healthy subjects; 24 hours): 96 (36) mg/dL
- Total Cholesterol (healthy subjects; 24 hours): 161 (31) mg/dL
- LDL Cholesterol (healthy subjects; 72 hours): 92 (27) mg/dL
- Total Cholesterol (healthy subjects; 72 hours): 154 (26) mg/dL
- LDL Cholesterol (healthy subjects; 168 hours): 77 (31) mg/dL
- Total Cholesterol (healthy subjects; 168 hours): 144 (24) mg/dL
- LDL Cholesterol (healthy subjects; 240 hours): 78 (29) mg/dL
- Total Cholesterol (healthy subjects; 240 hours): 144 (23) mg/dL
- LDL Cholesterol (healthy subjects; 408 hours): 86 (29) mg/dL
- Total Cholesterol (healthy subjects; 408 hours): 152 (22) mg/dL
- IC50 (PHD3): 0.2 to 2 µM
- reduction in total cholesterol by baseline total cholesterol ≦200 or >200 mg/dL ([3]; 19-week study, FIGS. 6A and B): appears to be larger for the subjects with higher cholesterol at BL
- LDL [3, 5]: 203.40
- LDL change from BL [3, 5]: 0.00
- TC [3, 5]: 275.80
- TC change from BL [3, 5]: 0.00
- LDL [3, 6]: 164.20
- LDL change from BL [3, 6]: −39.20
- TC [3, 6]: 239.20
- TC change from BL [3, 6]: −36.60
- LDL [3, 7]: 81.20
- LDL change from BL [3, 7]: 0.00
- TC [3, 7]: 157.90
- TC change from BL [3, 7]: 0.00
- LDL [3, 8]: 62.20
- LDL change from BL [3, 8]: −19.00
- TC [3, 8]: 128.20
- TC change from BL [3, 8]: −29.70
- hemoglobin levels ([3]; ESRD patients on dialysis, 0.8 to 3.0 mg/kg three times a week): effectively corrected hemoglobin levels
- total cholesterol, subjects with or without prior history of hyperlipidemia and/or hypercholesterolemia ([3]; Study 2 (6 weeks), FIG. 4): reduced the total cholesterol level of subjects in similar fashion
- HDL, lipid panel [3, 9]: slight decrease
- LDL, lipid panel [3, 9]: significant reduction
- VLDL, lipid panel [3, 9]: significant reduction
- total cholesterol, lipid panel [3, 9]: significant reduction
- triglycerides, lipid panel [3, 9]: significant reduction
- change in total cholesterol from baseline over time ([3]; treated for 19 weeks, FIG. 2): significant decrease in total cholesterol
- HDL decrease from baseline (Sprague-Dawley rats): 21 ± 7 mg/dL
- LDL decrease from baseline (Sprague-Dawley rats): 11 ± 3 mg/dL
- total cholesterol decrease from baseline (Sprague-Dawley rats): 26 ± 9 mg/dL
- IC50 (PHD1): 0.2 to 2 µM
